# Assay results taken from patent publication US9302999B2, “Substituted triazoles as herbicides” (E. I. DU PONT DE NEMOURS AND COMPANY, priority 2012, dated 2016).
# Tests used:
# Format in all cases: in vivo
# [1] = tested on: Oilseed Rape; assay: Test C postemergence: oilseed rape
# Text: At the same time, plants selected from these crop and weed species and also barley (winter barley, Hordeum vulgare), canarygrass (Phalaris minor), chickweed (common chickweed, Stellaria media) windgrass (Apera spica-venti) and deadnettle (henbit deadnettle, Lamium amplexicaule) were planted in pots containing Redi-Earth® planting medium (Scotts Company, 14111 Scottslawn Road, Marysville, Ohio 43041) comprising spaghnum peat moss, vermiculite, wetting agent and starter nutrients and treated with postemergence applications of test chemicals formulated in the same manner. Plants ranged in height from 2 to 18 cm (1- to 4-leaf stage) for postemergence treatments.
# Treated plants and controls were maintained in a greenhouse for 13 to 15 days, after which time all species were compared to controls and visually evaluated. Plant response ratings, summarized in Table C, are based on a scale of 0 to 100 where 0 is no effect and 100 is complete control. A dash (-) response means no test result.
# [2] = tested on: rice (Oryza sativa); assay: Test C flooded paddy test: rice; details: Oryza sativa, scale 0 to 100 (0 no effect, 100 complete control), read-out: Plant response rating, Rice
# Method in brief: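 2-leaf stage plants; pots flooded 3 cm above soil; compound applied into paddy water, depth maintained. Greenhouse 13–15 d. Visual rating vs controls, 0–100 (0 = no effect, 100 = complete control); dash = no result.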
# [3] = tested on: bromegrass, downy (downy bromegrass, Bromus tectorum); assay: Test C pre-/postemergence: bromegrass, downy
# Method in brief: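 Visual injury scored 0–100 (100 = complete control) against untreated controls after 13–15 greenhouse days. Surfactant-containing solvent formulations applied either to soil after sowing (loam/sand) or over 1- to 4-leaf plants, 2–18 cm tall.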
# [4] = tested on: mustard, wild (wild mustard, Sinapis arvensis); assay: Test D pre-/postemergence: mustard, wild
# Method in brief: (§1)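 Applied as a non-phytotoxic solvent formulation with surfactant, compounds were tested preemergence in silt loam and postemergence on seedlings 2 to 18 cm high in peat-vermiculite medium. Evaluation was visual, 0 meaning no effect and 100 complete control, at 14 to 21 days.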
# [5] = tested on: barley, spring (spring barley, Hordeum vulgare); assay: Test D pre-/postemergence: barley, spring
# Method in brief: as §1
# [6] = tested on: ryegrass, Italian (Italian ryegrass, Lolium multiflorum); assay: Test D pre-/postemergence: ryegrass, Italian
# Method in brief: as §1
# [7] = tested on: kochia (Kochia scoparia); assay: Test D pre-/postemergence: kochia
# Method in brief: as §1
# [8] = 31 g ai/ha, scale 0 to 100 (0 no effect, 100 complete control)
# [9] = 62 g ai/ha, scale 0 to 100 (0 no effect, 100 complete control)
# [10] = Postemergence, 31 g ai/ha, scale 0 to 100 (0 no effect, 100 complete control)
# [11] = Postemergence, 62 g ai/ha, scale 0 to 100 (0 no effect, 100 complete control)
# [12] = Postemergence, 125 g ai/ha, scale 0 to 100, 0 no effect, 100 complete control
# [13] = Postemergence, 250 g ai/ha, scale 0 to 100 (0 no effect, 100 complete control)
# [14] = Postemergence, 16 g ai/ha, scale 0 to 100
# [15] = Preemergence, 16 g ai/ha, scale 0 to 100 (0 no effect, 100 complete control)
# [16] = Preemergence, 31 g ai/ha, scale 0 to 100 (0 no effect, 100 complete control)
# [17] = Preemergence, 62 g ai/ha, scale 0 to 100
# [18] = Preemergence, 125 g ai/ha, scale 0 to 100
# [19] = Preemergence, 250 g ai/ha, scale 0 to 100
smiles,measurement,setting,value
Cc1nn(-c2ccc(C(F)(F)F)c(F)c2)nc1Cc1ccnc(C(F)(F)F)c1 [Compound 162],"Plant response rating, Oilseed Rape",[1]; [8],90
same,"Plant response rating, Oilseed Rape",[1]; [9],90
same,"Plant response rating, Oilseed Rape","[1]; 250 g ai/ha, scale 0 to 100",95
CCCc1nn(-c2ccc(C(F)(F)F)c(F)c2)nc1Oc1ccnc(C(F)(F)F)c1 [Compound 185],"Plant response rating, Oilseed Rape",[1]; [9],50
CCCc1nn(-c2ccc(F)cc2)nc1Cc1ccnc(C(F)(F)F)c1 [Compound 153],"Plant response rating, Oilseed Rape",[1]; [8],90
same,"Plant response rating, Oilseed Rape",[1]; [9],90
same,"Plant response rating, Oilseed Rape","[1]; 250 g ai/ha, scale 0 to 100",95
CCc1nn(-c2ccc(F)cc2)nc1Oc1ccnc(C(F)(F)F)c1 [Compound 166],"Plant response rating, Oilseed Rape",[1]; [9],5
same,"Plant response rating, Oilseed Rape","[1]; 250 g ai/ha, scale 0 to 100",40
"Cc1nn(-c2ccc(F)cc2)nc1Cc1ccnc(C(F)(F)F)c1 [Compound 16, 4-[[2-(4-fluorophenyl)-5-methyl-2H-1,2,3-triazol-4-yl]methyl]-2-(trifluoromethyl)pyridine]",plant injury at 62 g/ha,"[2]; Flood (flooded paddy test), 62 g ai/ha, visual rating after 13 to 15 days",30%
same,plant injury at 125 g/ha,"[2]; Flood (flooded paddy test), 125 g ai/ha, visual rating after 13 to 15 days",40%
same,plant injury at 250 g/ha,"[2]; Flood (flooded paddy test), 250 g ai/ha, visual rating after 13 to 15 days",50%
same,plant injury at 31 g/ha,"[2]; Flood, 31 g ai/ha",20%
same,"Plant response rating, Bromegrass, Downy",[3]; [10],15
same,"Plant response rating, Bromegrass, Downy",[3]; [11],15
same,"Plant response rating, Bromegrass, Downy",[3]; [12],25
same,"Plant response rating, Bromegrass, Downy","[3]; Postemergence, 250 g ai/ha, scale 0 to 100",25
same,"Plant response rating, Bromegrass, Downy","[3]; Preemergence, 31 g ai/ha, scale of 0 to 100, 0 is no effect, 100 is complete control",5
same,"Plant response rating, Bromegrass, Downy","[3]; Preemergence, 62 g ai/ha, scale 0 to 100, 0 no effect, 100 complete control",10
same,"Plant response rating, Bromegrass, Downy","[3]; Preemergence, 125 g ai/ha, scale 0 to 100, 0 no effect, 100 complete control",50
same,"Plant response rating, Bromegrass, Downy","[3]; Preemergence, 250 g ai/ha, scale 0 to 100, 0 no effect, 100 complete control",100
same,"Plant response rating: Mustard, Wild",[4]; [11],90
same,"Plant response rating: Mustard, Wild",[4]; [13],100
same,"Plant response rating, Mustard, Wild",[4]; [14],10
same,"Plant response rating, Mustard, Wild",[4]; [15],0
same,"Plant response rating, Mustard, Wild",[4]; [16],0
same,"Plant response rating, Mustard, Wild",[4]; [17],100
same,"Plant response rating, Mustard, Wild",[4]; [18],100
same,"Plant response rating, Mustard, Wild",[4]; [19],100
same,"Plant response rating: Barley, Spring",[5]; [10],15
same,"Plant response rating: Barley, Spring",[5]; [11],15
same,"Plant response rating: Barley, Spring",[5]; [12],20
same,"Plant response rating: Barley, Spring",[5]; [13],35
same,"Plant response rating, Barley, Spring",[5]; [14],5
same,"Plant response rating, Barley, Spring",[5]; [15],0
same,"Plant response rating, Barley, Spring",[5]; [16],0
same,"Plant response rating, Barley, Spring",[5]; [17],5
same,"Plant response rating, Barley, Spring",[5]; [18],5
same,"Plant response rating, Barley, Spring",[5]; [19],5
same,"Plant response rating: Ryegrass, Italian",[6]; [10],20
same,"Plant response rating: Ryegrass, Italian",[6]; [11],25
same,"Plant response rating: Ryegrass, Italian",[6]; [12],30
same,"Plant response rating: Ryegrass, Italian",[6]; [13],35
same,"Plant response rating, Ryegrass, Italian",[6]; [14],10
same,"Plant response rating, Ryegrass, Italian",[6]; [15],0
same,"Plant response rating, Ryegrass, Italian",[6]; [16],0
same,"Plant response rating, Ryegrass, Italian",[6]; [17],10
same,"Plant response rating, Ryegrass, Italian",[6]; [18],60
same,"Plant response rating, Ryegrass, Italian",[6]; [19],60
same,Plant response rating: Kochia,[7]; [10],90
same,Plant response rating: Kochia,[7]; [11],95
same,Plant response rating: Kochia,[7]; [12],75
same,Plant response rating: Kochia,[7]; [13],95
same,"Plant response rating, Kochia",[7]; [14],85
same,"Plant response rating, Kochia",[7]; [15],30
same,"Plant response rating, Kochia",[7]; [16],30
same,"Plant response rating, Kochia",[7]; [17],90
same,"Plant response rating, Kochia",[7]; [18],90
same,"Plant response rating, Kochia",[7]; [19],100
